Assay results as given in article PMC10959927, “Platinum iodido drugs show potential anti-tumor activity, affecting cancer cell metabolism and inducing ROS and senescence in gastrointestinal cancer cells” (Communications Biology, 2024).
Where “and” joins values, the source holds several entries; their conditions need not be identical. Equal values may be shown once.

How the values were obtained:
Type in all cases: cell-based, human
[1] = tested on: AGS cells; experiment: SA-β-Gal histochemical staining; details: Fig. S4A
Procedure: SA-β-Gal activity was measured following two different approaches. (i) AGS, MKN45 and PANC1 cells (5 × 10^4) were seeded in 24-multiwell dishes and incubated overnight. […] For flow cytometry cell senescence detection, cells were tripsinized, fixed for 15 min with PFA 4% and stained with the CellEvent Senescense Green Flow Cytometry Assay Kit (C10840, Invitrogen) according to manufacturer’s instructions. CellEvent Senescense Green Probe was used at a 1:500 dilution and fluorescence was detected using the filter (Ex488nm/Em530/30) BL1 with a 4-laser Attune NxT Acoustic Cytometer (Thermo Fisher Scientific). […] After 3 h, the treatments were removed, new supplemented medium was added, and cells were incubated for an additional 24 h. Finally, SA-β-Gal staining was performed using the Senescence Cells Histochemical Staining Kit (CS0030-1KT) according to the manufacturer’s instructions.

[2] = tested on: PANC1 cells; experiment: ROS detection by confocal microscopy (DHE, MitoSox); details: PANC1, 1 h treatment; H2O2 200 µM, CDDP 10 µM, I5 20 µM, I6 20 µM
Procedure: Tumor cells were seeded at a density of 3 × 10^5 cells in 15 µm 8-well IBIDI plates and incubated overnight. […] Subsequently, cells were stained with 10 μM of dihydroethidium (DHE, cytosolic O2^·- probe, Sigma-Aldrich) or with 5 μM of Mitosox (mitochondrial O2^·- probe, Sigma-Aldrich) for 15–30 min[79] and then visualized on a confocal microscope (Confocal LSM 710 Zeiss, Biomedical Research Institute Alberto Sols, IIBm-CSIC-UAM, Madrid, Spain). The image analysis was realized using the software program Image J.

[3] = tested on: AGS cells; experiment: Ratio GSH/GSSG, colorimetric kit; details: AGS, C+ (positive control), relative to Control = 1
Procedure: (§1) GSH and GSSG levels were determined in AGS and PANC1 cells after 3 and 24 h of treatment with the compounds (using H2O2 as a positive control) with the Glutathione Colorimetric Detection Kit (ThermoFisher) following the manufacturer’s instructions. Thirty minutes after adding the Colorimetric Detection Reagent and the Reaction Mixture, the absorbance was read at 405 nm. A standard curve was generated with each assay to interpolate the sample results. To measure GSSG, standards and samples must be diluted with the Sample Diluent containing 2-vinylpyridine.

[4] = tested on: PANC1 cells; experiment: Ratio GSH/GSSG, colorimetric kit; details: PANC1, C+ (positive control), relative to Control = 1
Procedure: as §1

OO [H2O2, reference compound]
Fold change % Senescence [1]: 52.81% and 54.43% and 58.54% | DHE fluorescence intensity (per cell), cytosolic O2•− [2]: 174.023 and 151.84 and 151.685 and 148.486 and 115.72 and 133.113 | GSH/GSSG [3]: 0.8614 and 0.8667 and 0.9484 | GSH/GSSG [4]: 0.5945 and 0.659 and 0.8185
